Assay: xn = mol fraction of the nth substance listed
Details: Liquid, Vibrating tube method

CCCCCCCCCC [decane] + CCO
Details | mass density [kg/m3]
362.64 K, 11000 kPa, x2 = 0.1011 | 686.5
362.64 K, 11000 kPa, x2 = 0.4963 | 692.75
362.64 K, 11000 kPa, x2 = 0.9014 | 719.95
362.64 K, 12000 kPa, x2 = 0.1011 | 687.56
362.64 K, 12000 kPa, x2 = 0.4963 | 693.89
362.64 K, 12000 kPa, x2 = 0.9014 | 721.13
362.64 K, 13000 kPa, x2 = 0.1011 | 688.62
362.64 K, 13000 kPa, x2 = 0.4963 | 694.99
362.64 K, 13000 kPa, x2 = 0.9014 | 722.28
362.64 K, 14000 kPa, x2 = 0.1011 | 689.68
362.64 K, 14000 kPa, x2 = 0.4963 | 696.14
362.64 K, 14000 kPa, x2 = 0.9014 | 723.43
362.64 K, 15000 kPa, x2 = 0.1011 | 690.66
362.64 K, 15000 kPa, x2 = 0.4963 | 697.17
362.64 K, 15000 kPa, x2 = 0.9014 | 724.55
362.64 K, 16000 kPa, x2 = 0.1011 | 691.66
362.64 K, 16000 kPa, x2 = 0.4963 | 698.23
362.64 K, 16000 kPa, x2 = 0.9014 | 725.65
362.64 K, 17000 kPa, x2 = 0.1011 | 692.65
362.64 K, 17000 kPa, x2 = 0.4963 | 699.27
362.64 K, 17000 kPa, x2 = 0.9014 | 726.75
362.64 K, 18000 kPa, x2 = 0.1011 | 693.62
362.64 K, 18000 kPa, x2 = 0.4963 | 700.3
362.64 K, 18000 kPa, x2 = 0.9014 | 727.82
362.64 K, 19000 kPa, x2 = 0.1011 | 694.56
362.64 K, 19000 kPa, x2 = 0.4963 | 701.3
362.64 K, 19000 kPa, x2 = 0.9014 | 728.87
362.64 K, 20000 kPa, x2 = 0.1011 | 695.5
362.64 K, 20000 kPa, x2 = 0.4963 | 702.3
362.64 K, 20000 kPa, x2 = 0.9014 | 729.9
362.65 K, 1000 kPa, x2 = 0.0937 | 675.13
362.65 K, 2000 kPa, x2 = 0.0937 | 676.3
362.65 K, 3000 kPa, x2 = 0.0937 | 677.46
362.65 K, 4000 kPa, x2 = 0.0937 | 678.6
362.65 K, 5000 kPa, x2 = 0.0937 | 679.76
362.65 K, 6000 kPa, x2 = 0.0937 | 680.91
362.65 K, 7000 kPa, x2 = 0.0937 | 682.04
362.65 K, 8000 kPa, x2 = 0.0937 | 683.16
362.65 K, 9000 kPa, x2 = 0.0937 | 684.25
362.65 K, 10000 kPa, x2 = 0.0937 | 685.35
362.65 K, 11000 kPa, x2 = 0.0937 | 686.41
362.65 K, 12000 kPa, x2 = 0.0937 | 687.48
362.65 K, 13000 kPa, x2 = 0.0937 | 688.51
362.65 K, 14000 kPa, x2 = 0.0937 | 689.55
362.65 K, 15000 kPa, x2 = 0.0937 | 690.57
362.65 K, 16000 kPa, x2 = 0.0937 | 691.56
362.65 K, 17000 kPa, x2 = 0.0937 | 692.56
362.65 K, 18000 kPa, x2 = 0.0937 | 693.53
362.65 K, 19000 kPa, x2 = 0.0937 | 694.47
362.65 K, 20000 kPa, x2 = 0.0937 | 695.39
362.71 K, 1000 kPa, x2 = 0.7526 | 692.67
362.71 K, 2000 kPa, x2 = 0.7526 | 693.99
362.71 K, 3000 kPa, x2 = 0.7526 | 695.3
362.71 K, 4000 kPa, x2 = 0.7526 | 696.58
362.71 K, 5000 kPa, x2 = 0.7526 | 697.86
362.71 K, 6000 kPa, x2 = 0.7526 | 699.12
362.71 K, 7000 kPa, x2 = 0.7526 | 700.37
362.71 K, 8000 kPa, x2 = 0.7526 | 701.6
362.71 K, 9000 kPa, x2 = 0.7526 | 702.81
362.71 K, 10000 kPa, x2 = 0.7526 | 704.01
362.71 K, 11000 kPa, x2 = 0.7526 | 705.19
362.71 K, 12000 kPa, x2 = 0.7526 | 706.37
362.71 K, 13000 kPa, x2 = 0.7526 | 707.51
362.71 K, 14000 kPa, x2 = 0.7526 | 708.68
362.71 K, 15000 kPa, x2 = 0.7526 | 709.76
362.71 K, 16000 kPa, x2 = 0.7526 | 710.84
362.71 K, 17000 kPa, x2 = 0.7526 | 711.92
362.71 K, 18000 kPa, x2 = 0.7526 | 712.98
362.71 K, 19000 kPa, x2 = 0.7526 | 714.02
362.71 K, 20000 kPa, x2 = 0.7526 | 715.03
362.8 K, 1000 kPa, x2 = 0.2507 | 676.12
362.8 K, 2000 kPa, x2 = 0.2507 | 677.34
362.8 K, 3000 kPa, x2 = 0.2507 | 678.55
362.8 K, 4000 kPa, x2 = 0.2507 | 679.73
362.8 K, 5000 kPa, x2 = 0.2507 | 680.92
362.8 K, 6000 kPa, x2 = 0.2507 | 682.09
362.8 K, 7000 kPa, x2 = 0.2507 | 683.25
362.8 K, 8000 kPa, x2 = 0.2507 | 684.4
362.8 K, 9000 kPa, x2 = 0.2507 | 685.54
362.8 K, 10000 kPa, x2 = 0.2507 | 686.66
362.8 K, 11000 kPa, x2 = 0.2507 | 687.77
362.8 K, 12000 kPa, x2 = 0.2507 | 688.85
362.8 K, 13000 kPa, x2 = 0.2507 | 689.91
362.8 K, 14000 kPa, x2 = 0.2507 | 691.02
362.8 K, 15000 kPa, x2 = 0.2507 | 692.02
362.8 K, 16000 kPa, x2 = 0.2507 | 693.05
362.8 K, 17000 kPa, x2 = 0.2507 | 694.06
362.8 K, 18000 kPa, x2 = 0.2507 | 695.04
362.8 K, 19000 kPa, x2 = 0.2507 | 696.01
362.8 K, 20000 kPa, x2 = 0.2507 | 696.96

Reference: the NIST ThermoML archive (doi:10.1016/j.jct.2012.06.012)
